Measurements: ChEMBL document CHEMBL4732240, “Synthesis and antibacterial evaluation of new monobactams” (2021)
Values after ≈ are worked out from the molar mass of the structure shown.

Key:
Type in all cases: functional
Klebsiella pneumoniae [1] = assay: Antibacterial activity against Klebsiella pneumoniae 700603 assessed as reduction in bacterial growth by CLSI based broth microdilution method
Acinetobacter baumannii [2] = assay: Antibacterial activity against Acinetobacter baumannii ATCC 19606 assessed as reduction in bacterial growth by CLSI based broth microdilution method; settings: ATCC 19606 = CIP 70.34 = JCM 6841
Enterobacter cloacae [3] = assay: Antibacterial activity against Enterobacter cloacae 700323 assessed as reduction in bacterial growth by CLSI based broth microdilution method
Klebsiella pneumoniae [4] = assay: Antibacterial activity against Klebsiella pneumoniae clinical isolate assessed as reduction in bacterial growth by CLSI based broth microdilution method
Pseudomonas aeruginosa [5] = assay: Antibacterial activity against Pseudomonas aeruginosa 9027 assessed as reduction in bacterial growth by CLSI based broth microdilution method
Pseudomonas aeruginosa [6] = assay: Antibacterial activity against Pseudomonas aeruginosa clinical isolate. assessed as reduction in bacterial growth by CLSI based broth microdilution method
Escherichia coli [7] = assay: Antibacterial activity against Escherichia coli clinical isolate assessed as reduction in bacterial growth by CLSI based broth microdilution method
Enterobacter cloacae [8] = assay: Antibacterial activity against Enterobacter cloacae clinical isolate assessed as reduction in bacterial growth by CLSI based broth microdilution method
Escherichia coli [9] = assay: Antibacterial activity against Escherichia coli ATCC 8739 assessed as reduction in bacterial growth by CLSI based broth microdilution method
Acinetobacter baumannii [10] = assay: Antibacterial activity against Acinetobacter baumannii clinical isolate assessed as reduction in bacterial growth by CLSI based broth microdilution method

| Structure (SMILES) | MIC (Klebsiella pneumoniae [1]) | MIC (Acinetobacter baumannii [2]) | MIC (Enterobacter cloacae [3]) | MIC (Klebsiella pneumoniae [4]) | MIC (Pseudomonas aeruginosa [5]) | MIC (Pseudomonas aeruginosa [6]) | MIC (Escherichia coli [7]) | MIC (Enterobacter cloacae [8]) | MIC (Escherichia coli [9]) | MIC (Acinetobacter baumannii [10]) |
| --- | --- | --- | --- | --- | --- | --- | --- | --- | --- | --- |
| CC1(C)[C@H](NC(=O)/C(=N/O[C@@H](COc2ccc(NC(=O)N[C@H]3CCCNC3)cc2)C(=O)O)c2csc(N)n2)C(=O)N1OS(=O)(=O)O | > 64 µg/mL | > 64 µg/mL | 16 µg/mL (≈ 23.4 µM) | 32 µg/mL (≈ 46.7 µM) | 32 µg/mL (≈ 46.7 µM) | 64 µg/mL (≈ 93.5 µM) | 32 µg/mL (≈ 46.7 µM) | 64 µg/mL (≈ 93.5 µM) | 4 µg/mL (≈ 5.84 µM) | > 64 µg/mL |
| CC1(C)[C@H](NC(=O)/C(=N/O[C@@H](COc2ccc(NC(=O)NC3CCNCC3)cc2)C(=O)O)c2csc(N)n2)C(=O)N1OS(=O)(=O)O | > 64 µg/mL | > 64 µg/mL | > 64 µg/mL | 8 µg/mL (≈ 11.7 µM) | 16 µg/mL (≈ 23.4 µM) | 16 µg/mL (≈ 23.4 µM) | 2 µg/mL (≈ 2.92 µM) | 32 µg/mL (≈ 46.7 µM) | 4 µg/mL (≈ 5.84 µM) | > 64 µg/mL |
| CC1(C)[C@H](NC(=O)/C(=N/O[C@@H](COc2ccc(NC(=O)N[C@@H]3CCCNC3)cc2)C(=O)O)c2csc(N)n2)C(=O)N1OS(=O)(=O)O | > 64 µg/mL | > 64 µg/mL | 32 µg/mL (≈ 46.7 µM) | 32 µg/mL (≈ 46.7 µM) | 32 µg/mL (≈ 46.7 µM) | 64 µg/mL (≈ 93.5 µM) | 32 µg/mL (≈ 46.7 µM) | 64 µg/mL (≈ 93.5 µM) | 8 µg/mL (≈ 11.7 µM) | > 64 µg/mL |

The next compounds have a lower MIC (Klebsiella pneumoniae [1]) than those just listed; values first:

| MIC (Klebsiella pneumoniae [1]) | MIC (Acinetobacter baumannii [2]) | MIC (Enterobacter cloacae [3]) | MIC (Klebsiella pneumoniae [4]) | MIC (Pseudomonas aeruginosa [5]) | MIC (Pseudomonas aeruginosa [6]) | MIC (Escherichia coli [7]) | MIC (Enterobacter cloacae [8]) | MIC (Escherichia coli [9]) | MIC (Acinetobacter baumannii [10]) | Structure (SMILES) |
| --- | --- | --- | --- | --- | --- | --- | --- | --- | --- | --- |
| 32 µg/mL (≈ 46.7 µM) | 16 µg/mL (≈ 23.4 µM) | 32 µg/mL (≈ 46.7 µM) | 1 µg/mL (≈ 1.46 µM) | 2 µg/mL (≈ 2.92 µM) | 4 µg/mL (≈ 5.84 µM) | 1 µg/mL (≈ 1.46 µM) | 4 µg/mL (≈ 5.84 µM) | 0.25 µg/mL (≈ 0.365 µM) | 64 µg/mL (≈ 93.5 µM) | CC1(C)[C@H](NC(=O)/C(=N\O[C@@H](COc2ccc(NC(=O)NC3CCNCC3)cc2)C(=O)O)c2csc(N)n2)C(=O)N1OS(=O)(=O)O |
| 32 µg/mL (≈ 46.7 µM) | 32 µg/mL (≈ 46.7 µM) | 32 µg/mL (≈ 46.7 µM) | 1 µg/mL (≈ 1.46 µM) | 2 µg/mL (≈ 2.92 µM) | 2 µg/mL (≈ 2.92 µM) | 8 µg/mL (≈ 11.7 µM) | 4 µg/mL (≈ 5.84 µM) | 0.25 µg/mL (≈ 0.365 µM) | 64 µg/mL (≈ 93.5 µM) | CC1(C)[C@H](NC(=O)/C(=N\O[C@@H](COc2ccc(NC(=O)N[C@H]3CCCNC3)cc2)C(=O)O)c2csc(N)n2)C(=O)N1OS(=O)(=O)O |
| 8 µg/mL (≈ 11.7 µM) | 8 µg/mL (≈ 11.7 µM) | 16 µg/mL (≈ 23.4 µM) | 0.5 µg/mL (≈ 0.73 µM) | 2 µg/mL (≈ 2.92 µM) | 8 µg/mL (≈ 11.7 µM) | 0.5 µg/mL (≈ 0.73 µM) | 2 µg/mL (≈ 2.92 µM) | 0.25 µg/mL (≈ 0.365 µM) | 16 µg/mL (≈ 23.4 µM) | CC1(C)[C@H](NC(=O)/C(=N\O[C@@H](COc2ccc(NC(=O)N[C@@H]3CCCNC3)cc2)C(=O)O)c2csc(N)n2)C(=O)N1OS(=O)(=O)O |
